In data set [1] the test system is human multiple myeloma (RPMI 8226) cell line. Nature of the data set: MTT cell proliferation assay, RPMI 8226. In kind it is cell-based. To be noted: antiproliferative, 96 h, read-out: IC50 ± SD RPMI 8226. The protocol: (§1) The influence of the tested compounds on the proliferation of RPMI 8226 and A549 cells was estimated with the MTT assay as described previously. Briefly, 1 × 10^4 cells/mL (RPMI 8226) or 0.2 × 10^4 (A549) cells per well were seeded into 96-well plates and cultured (in growth medium containing 10% FBS) with different concentrations of each compound ranging from 3.125 to 100 μM. The control cells were treated with the vehicle DMSO (0.1%).
Background: Tetrazolium dyes change colour on reduction, which living cells bring about.

Data set [2] relates to human lung carcinoma (A549) cell line. Nature of the data set: MTT cell proliferation assay, A549. Type of data set: cell-based. The conditions noted are these: antiproliferative, 96 h, read-out: IC50 ± SD A549. As for the experimental part:
as §1

In data set [3] the test system is human breast adenocarcinoma (MDA-MB-231) cell line. Nature of the data set: MTT cell proliferation assay, MDA-MB-231. Type of data set: cell-based. To be noted: read-out: IC50 ± SD MDA-MB-231. The source says: (§2) The influence of the tested compounds on the proliferation of melanoma B16F10 and breast MDA-MB-231 cells was estimated with the MTT assay as described previously. The cells counted using an automated cell counter (Countess® II FL, Invitrogen by Thermo Fisher Scientific Inc., Waltham, MA USA) and plated in 96-well plates (Nunc Edge 2F, Thermo Fisher Scientific Inc.) at a density of 0.1 × 10^4 and 0.2 × 10^4 per well, respectively. A total of twenty-four hours later, drugs were applied with final concentration: 5, 0.5, 0.05, and 0.005 μg/mL, and after an additional seventy-two hours MTT staining was performed as follows: twenty microliters of 5 mg/mL MTT solution and was added to each well of 96-well plate incubated for 2 h. Subsequently, the medium was removed and crystals of formazan were solubilized in pure isopropanol. Absorbance readout was conducted immediately using plate reader Multiskan Spectrum at 570 nm (Thermo Electron Corporation, Waltham, MA, USA). The background optical density was measured in the wells filled with culture medium, without the cells. The biological evaluation was performed as three independent experiments. The IC50 values were calculated using ED50plus v 1.0 freeware software and the mean response and standard deviation were calculated using Excel software. All of the chemicals were obtained from Sigma-Aldrich.

Data set [4] has as its system mouse skin melanoma (B16-F10) cell line. Nature of the data set: MTT cell proliferation assay, B16-F10. The conditions noted are these: read-out: IC50 ± SD B16-F10. Type of data set: cell-based.
From the text: as §2

Another data set has as its target mushroom tyrosinase (Agaricus bisporus, UniProt C7FF04). Nature of the data set: Kinetic analysis of the inhibition of tyrosinase (Lineweaver-Burk). In kind it is biochemical. The conditions noted are these: tyrosinase-catalyzed oxidation of L-DOPA. As for the experimental part:
To understand the mechanism of mushroom tyrosinase inhibition by new compounds 3a–3h, enzyme inhibition kinetic studies were performed. The mechanism of tyrosinase inhibition was determined using Lineweaver–Burk plot, which is a useful graphical method for analysis of the Michaelis–Menten equations used to determine the inhibition constant […].
A series of experiments were performed to determine the inhibition kinetics of compounds by following the already reported method. The inhibitor concentrations for compounds were 50 and 100 µM. Substrate L-DOPA concentration was between 100 and 250 µM in all kinetic studies. Maximal initial velocity was determined from the initial linear portion of absorbance up to ten minutes after addition of enzyme. The inhibition type of the enzyme, Michaelis constant (KM) and maximal velocity (Vmax) were determined by Lineweaver–Burk plots of inverse of velocities (1/V) versus inverse of substrate concentration 1/[L-DOPA] mM^−1.

The subject of data set [5] is human normal skin fibroblasts (HSF).
Protocol: (§3) The human normal skin fibroblasts, i.e., the HSF cell line, were a laboratory strain obtained with the outgrowth technique from skin explants from young volunteers (with subjects’ written informed consent). […] The CCD18-Co cells were grown in Eagle Medium (Sigma-Aldrich, St. Louis, MO, USA) supplemented with 2 mM L-glutamine (Sigma-Aldrich) and 1mM sodium pyruvate (Sigma-Aldrich, St. Louis, MO, USA), 10% FBS, (without antibiotics). HSF were cultured in a 1:1 mixture of Dulbecco’s modified Eagle Medium and Eagle Medium (Sigma-Aldrich) containing 10% FBS, 100 units/mL of penicillin, and 100 mg/mL of streptomycin. […] All cell lines were cultured in a humidified 5% CO2 atmosphere at a temperature of 37 °C. A stock solution of each tested compound was made in dimethylsulfoxide (DMSO; Sigma-Aldrich) and stored at 4 °C until use. The drug was diluted in an appropriate culture medium immediately before use.
(§4) The influence of the tested compounds on normal cell viability was estimated with the MTT assay. The CCD-18Co and HSF cells were seeded in 96-well microplates at a density of 1 × 10^5 cells/mL in complete growth medium. The next day, the medium was replaced with a fresh one containing 2% FBS (growth restriction) and the cells were exposed to each tested compound (3.156–100 µM) to study the acute toxicity in vitro. After 24-h incubation, the medium was removed and the cells were incubated for 3 h with an MTT solution; next, formazan crystals were solubilized overnight by adding SDS buffer and absorbance was determined at a wavelength of 570 nm using an EL800 Microplate Reader (BioTek Instruments, Winooski, VT, USA). The absorbance of the control wells was taken as 100% and the cell viability was expressed as a percentage of the control. CC50 values, defined as concentrations of the compounds necessary to reduce cell viability by 50%, were calculated from nonlinear regression (log(inhibitor) vs. normalized response-variable slope) using GraphPad Prism 5.0.
Data set [6] has as its system human normal colon fibroblasts (CCD-18Co).
Protocol: as §3, §4
Data set [7] can be described thus: in vitro.
Protocol: as §3, §4
A short description of data set [8]: in vitro. To be noted: human.
Protocol: as §3, §4
[9] abbreviates: MDA-MB-231, antiproliferative, MTT, 72 h.
Setting [10] is: B16-F10, antiproliferative, MTT, 72 h.

Read-outs that look alike come from different tables or passages of the source.

Chain of mushroom tyrosinase (C7FF04 1-392): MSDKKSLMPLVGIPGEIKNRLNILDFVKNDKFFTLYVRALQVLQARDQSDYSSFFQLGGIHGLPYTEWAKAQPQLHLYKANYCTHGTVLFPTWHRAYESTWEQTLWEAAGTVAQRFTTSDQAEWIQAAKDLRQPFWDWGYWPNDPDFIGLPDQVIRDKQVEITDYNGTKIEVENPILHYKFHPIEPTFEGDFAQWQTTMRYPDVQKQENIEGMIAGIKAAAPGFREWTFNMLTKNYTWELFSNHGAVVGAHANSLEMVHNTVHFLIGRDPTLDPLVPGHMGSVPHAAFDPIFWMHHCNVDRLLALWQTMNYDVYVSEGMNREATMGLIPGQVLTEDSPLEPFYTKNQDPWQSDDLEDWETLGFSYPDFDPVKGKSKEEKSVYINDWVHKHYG

On to `CN1C2CCC1CC(=NNc1nc(-c3ccc([N+](=O)[O-])cc3)cs1)C2` [Compound 3d, 4-(4-Nitrophenyl)-2-(2-(8-methyl-8-azabicyclo[3.2.1]octan-3-ylidene)hydrazinyl)thiazole], for which the melting point is 99 to 101 °C. The half-maximal inhibitory concentration (IC50) in data set [1] is 17.9 ± 1.78 µM. For the same compound, the IC50 in data set [2] was found to be 31 ± 4.62 µM. Besides, in data set [3] (setting [9]), the 50% inhibitory concentration (IC50) was 2.44 ± 0.14 µM. Further, the concentration for half-maximal inhibition (IC50) in [4] (setting [10]) was 1.91 ± 0.04 µM. Also, at mushroom tyrosinase, the “Inhibitory Mechanism” value was “mixed”.
As for `CN1C2CCC1CC(=NNc1nc(-c3ccc(NS(C)(=O)=O)cc3)cs1)C2` [Compound 3f, N-(4-[2-[2-(8-Methyl-8-azabicyclo[3.2.1]oct-3-ylidene)hydrazinyl]-1,3-thiazol-4-yl]phenyl)methane-sulfonamide], the melting point lay within 98 to 100 °C. Further, the IC50 in data set [1] is 107 ± 7.22 µM. For the same compound, the 50% inhibitory concentration (IC50) in [2] worked out at 117 ± 22.8 µM. For the same compound, in data set [3] (setting [9]), the IC50 was found to be 2.48 ± 0.08 µM. In addition, the IC50 in data set [4] (setting [10]) was 2.14 ± 0.23 µM. Also, the “Inhibitory Mechanism” value at mushroom tyrosinase is given as “mixed”. Further, in data set [5], the “CC50 ± SD HSF” value was “weak”. Besides, the “CC50 ± SD CCD-18Co” value in data set [6] is given as “no toxicity”. For the same compound, in “in vitro [7]”, the CC50 at 24 h is 98.7 ± 4.16 µM. The same compound gave a CC50 at 24 h in “in vitro [8]” greater than 100 µM.
On to `O=C(O)CCCc1ccc(N(CCCl)CCCl)cc1` [Chlorambucil, reference compound], for which the IC50 in [3] (MDA-MB-231, 72 h) was determined as 4.71 ± 0.5 µM; in data set [4] (B16-F10, 72 h) it was 2.92 ± 0.1 µM.
As for `CC(=O)Nc1ccc(-c2csc(NN=C3CC4CCC(C3)N4C)n2)cc1` [Compound 3h, N-(4-[2-[2-(8-Methyl-8-azabicyclo[3.2.1]oct-3-ylidene)hydrazinyl]-1,3-thiazol-4-yl]phenyl)acetamide], the melting point is 97 to 99 °C. In [1], the IC50 was 108 ± 4.8 µM. In addition, in [2], the IC50 was determined as 189 ± 33 µM. Moreover, the IC50 in [3] (setting [9]) worked out at 2.9 ± 0.25 µM. In addition, the half-maximal inhibitory concentration (IC50) in data set [4] (setting [10]) amounted to 3.03 ± 0.18 µM. Besides, the “Inhibitory Mechanism” value at mushroom tyrosinase is reported as “mixed”. Further, the “CC50 ± SD HSF” value in data set [5] was “no toxicity”. For the same compound, the “CC50 ± SD CCD-18Co” value in [6] was “no toxicity”. The compound further yielded a CC50 at 24 h in the data set “in vitro [7]” greater than 100 µM. Also, the CC50 at 24 h in the data set “in vitro [8]” is greater than 100 µM.
The compound `CN1C2CCC1CC(=NNc1nc(-c3cc4ccccc4oc3=O)cs1)C2` [Compound 3g, 3-[2-[2-(8-Methyl-8-azabicyclo[3.2.1]oct-3-ylidene)hydrazinyl]-1,3-thiazol-4-yl]-2H-chromen-2-one] came in with a melting point of 110 to 113 °C. In addition, in [1], the IC50 came to 23.2 ± 4.52 µM. Besides, the half-inhibitory concentration (IC50) in data set [2] worked out at 29.3 ± 3.98 µM. In addition, in data set [3] (setting [9]), the IC50 came to 2.83 ± 0.06 µM. In addition, the 50% inhibitory concentration (IC50) in [4] (setting [10]) was 3 ± 0.26 µM. Moreover, the “Inhibitory Mechanism” value at mushroom tyrosinase is “mixed”. The same compound gave a CC50 at 24 h in “in vitro [7]” of 35.3 ± 5.52 µM. The CC50 at 24 h in “in vitro [8]” amounted to 42.6 ± 5.89 µM.
The compound `CN1C2CCC1CC(=NNc1nc(-c3ccc(N)cc3)cs1)C2` [Compound 3e, 4-[2-[2-(8-Methyl-8-azabicyclo[3.2.1]oct-3-ylidene)hydrazinyl]-1,3-thiazol-4-yl]aniline] yielded a melting point of 85 to 87 °C. Moreover, in [1], the 50% inhibitory concentration (IC50) was found to be 67 ± 7.14 µM. The IC50 in data set [2] was found to be 263 ± 105 µM. Further, the IC50 in data set [3] (setting [9]) amounted to 2.81 ± 0.12 µM. Further, in data set [4] (setting [10]), the half-maximal inhibitory concentration (IC50) came to 2.68 ± 0.4 µM. For the same compound, at mushroom tyrosinase, the “Inhibitory Mechanism” value is given as “mixed”. The “CC50 ± SD HSF” value in data set [5] is listed as “no toxicity”. The “CC50 ± SD CCD-18Co” value in [6] is given as “no toxicity”. The CC50 at 24 h in the data set “in vitro [7]” was greater than 100 µM. In addition, in “in vitro [8]”, the CC50 at 24 h was greater than 100 µM.
Take `CN1C2CCC1CC(=NNc1nc(-c3ccc(C#N)cc3)cs1)C2` [Compound 3c, 4-[2-[2-(8-Methyl-8-azabicyclo[3.2.1]oct-3-ylidene)hydrazinyl]-1,3-thiazol-4-yl]benzonitrile]: the melting point lay within 90 to 92 °C. Besides, the IC50 in [1] came out at 31.7 ± 2.77 µM. Besides, the IC50 in [2] was 74.9 ± 7.65 µM. Further, the IC50 in [3] (setting [9]) was 2.7 ± 0.14 µM. In addition, the half-inhibitory concentration (IC50) in data set [4] (setting [10]) amounted to 1.52 ± 0.13 µM. Also, the “Inhibitory Mechanism” value at mushroom tyrosinase was “mixed”.
Compound `COc1ccc(-c2csc(NN=C3CC4CCC(C3)N4C)n2)cc1` [Compound 3b, 4-(4-Methoxyphenyl)-2-(2-(8-methyl-8-azabicyclo[3.2.1]octan-3-ylidene)hydrazinyl)thiazole] displayed a melting point of 91 to 93 °C. For the same compound, in data set [1], the 50% inhibitory concentration (IC50) was 42.2 ± 4.55 µM. In [2], the IC50 was 133 ± 25.1 µM. For the same compound, the IC50 in data set [3] (setting [9]) is 2.53 ± 0.07 µM. Moreover, the IC50 in data set [4] (setting [10]) turned out to be 2.2 ± 0.04 µM. Also, at mushroom tyrosinase, the “Inhibitory Mechanism” value is “mixed”.

One may read the IC50 as the concentration needed to halve the response being measured. A word on the melting point: it is the temperature of the solid-liquid transition.
